# According to patent US9988268B2, “Preparation of 2,6- and 2,7-disubstituted anthraquinone derivatives” (BASF SE, priority 2014, dated 2018):
# Like-named read-outs stand apart in the source and are kept apart here.
# Assay: Determination of the solubility of anthraquinone derivatives in xylene/diisobutylcarbinol
# Type: physicochemical
# Conditions: for solubility: mixture of xylene (50 volume-%) and diisobutylcarbinol (50 volume-%), 22° C.; for Solubility (in words): xylene/diisobutylcarbinol solvent system, comparison of anthraquinone derivatives
# Method: 0.06 ml of a mixture of xylene (50 volume-%) and diisobutylcarbinol (50 volume-%) were added to 1 g of the respective anthraquinone derivative at 22° C. every 60 seconds until the anthraquinone derivative was dissolved completely.
Structure (SMILES),solubility,Solubility (in words),"solubility (xylene/diisobutylcarbinol mixture (50:50 by volume), organic solvent or mixture, thermodynamic from solid, read-out: Solubility)"
"Cc1cc2c(cc1C)C(=O)c1cc(C)c(C)cc1C2=O [Comparative Example 6, 2,3,6,7-tetramethylanthracene-9,10-dione]",insoluble,insoluble,–
CCc1ccc2c(c1)C(=O)c1ccccc1C2=O [2-ethylanthraquinone],–,poorly soluble,270 mM
